Bounds are passed on as bounds.

T1 sequence (P47898 whole entry): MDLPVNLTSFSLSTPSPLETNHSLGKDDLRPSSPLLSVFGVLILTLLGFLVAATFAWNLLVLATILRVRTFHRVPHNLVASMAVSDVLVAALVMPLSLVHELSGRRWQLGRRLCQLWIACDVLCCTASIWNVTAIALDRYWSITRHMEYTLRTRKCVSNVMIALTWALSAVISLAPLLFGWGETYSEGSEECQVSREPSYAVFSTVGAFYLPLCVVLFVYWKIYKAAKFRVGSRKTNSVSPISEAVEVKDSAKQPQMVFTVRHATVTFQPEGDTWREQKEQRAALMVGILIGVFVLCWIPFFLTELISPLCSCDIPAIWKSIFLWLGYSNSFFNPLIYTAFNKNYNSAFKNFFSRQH

The assay has as its target T1, h5-HT5A receptor (Homo sapiens, UniProt P47898).
T1 construct: expressed in transfected cells; membranes used
The assay can be described thus: h5-HT5A [3H]5-CT binding assay. Conditions: affinity for 5-HT5A; membranes of HEK293 cells expressing the h5-HT5A receptor gene, 2.5 nM [3H]5-CT. The method, then: h5-HT5A [^3H]5-CT Binding Assay
Membranes of HEK293 cells which permanently express the h5-HT5A receptor gene were incubated in 100 mM tris-HCl buffer (pH 7.7) containing 1 mM EDTA, in the presence of 2.5 nM [^3H]5-CT (total volume 600 μL). The total binding is defined as the binding that is observed when the membranes are incubated in the presence of only the radioligand. The inhibition induced by the compound is determined by incubation of cell membranes in the presence of the radioligand and various concentrations of the compound of interest. Nonspecific binding is defined as the [^3H]5-CT binding obtained by incubation of the membranes, the same as for the total binding, but in the presence of 10 μM methiothepine. Following incubation for 75 min at 30° C., the membrane suspension was filtered through a GF/B-Filter coated with 0.03% PEI, using a Skatron® harvesting system. The residual radioactivity in the filter was quantified by liquid scintillation counting.
Various concentrations of the test substances were used in both assays, and the Ki or IC50 values were determined.
Regarding `Cc1ccc(NC(=N)NCc2ccccc2OC(F)F)nc1` [Example 26, N-[2-(Difluoromethoxy)benzyl]-N′-(5-methylpyridin-2-yl)guanidine], the Ki (commonly the dissociation constant of the complex between target and ligand, obtained from inhibition or displacement) was less than 100 nM. Molecule `COc1cccc(OC)c1CNC(=N)Nc1cccc(C#N)n1` [Example 55, N-(6-Cyanopyridin-2-yl)-N′-(2,6-dimethoxybenzyl)guanidine acetate] showed a Ki of less than 100 nM. For `COc1ccccc1CNC(=N)Nc1ccc2ccccc2n1` [Example 40, N-(2-Methoxybenzyl)-N′-quinolin-2-yl-guanidine acetate] the value was less than 100 nM; for `CCOc1ccccc1CNC(=N)Nc1ccc(C)cn1` [Example 22, N-(2-Ethoxybenzyl)-N′-(5-methylpyridin-2-yl)guanidine acetate], less than 100 nM; for `COc1ccccc1CNC(=N)Nc1cccc(-c2cccs2)n1` [Example 49, N-(2-Methoxybenzyl)-N′-[6-(2-thienyl)pyridin-2-yl]guanidine], less than 100 nM. For `COc1cccc(OC)c1CNC(=N)Nc1cccc(Br)n1` [Example 43, N-(6-Bromopyridin-2-yl)-N′-(2,6-dimethoxybenzyl)guanidine], the Ki was less than 100 nM. As for `COc1cccc(C)c1CNC(=N)Nc1cccc(C#N)n1` [Example 76, N-(2-Methoxy-6-methylbenzyl)-N′-(6-cyanopyridin-2-yl)guanidine acetate], the inhibition constant Ki was less than 100 nM.

The molecule `COc1cccc(OC)c1CNC(=N)Nc1ccc(Cc2ccccc2)cn1` [Example 68, N-(5-Benzylpyridin-2-yl)-N′-(2,6-dimethoxybenzyl)guanidine acetate] registered a Ki of less than 100 nM.

In the case of `COc1ccccc1CNC(=N)Nc1nccc(-c2cccs2)n1` [Example 14, N-(2-Methoxybenzyl)-N′-(4-(2-thienyl)pyrimidin-2-yl]guanidine acetate], the Ki is less than 10000 nM. Molecule `COc1cccc(F)c1CNC(=N)Nc1ccc(C#N)cn1` [Example 96, N-(5-Cyanopyridin-2-yl)-N′-(2-fluoro-6-methoxybenzyl)guanidine acetate] gave a Ki of less than 100 nM. For `Cc1ccc(NC(=N)NCc2ccccc2OC(F)(F)F)nc1` [Example 24, N-(5-Methylpyridin-2-yl)-N′-[2-(trifluoromethoxy)benzyl]guanidine] the value was less than 100 nM; for `N=C(NCc1ccccc1Cl)Nc1ccc(I)cn1` [Example 94, N-(2-Chlorobenzyl)-N′-(5-iodopyridin-2-yl)guanidine acetate], less than 300 nM. For `COc1cccc(OC)c1CNC(=N)Nc1ccc2ccccc2n1` [Example 41, N-(2,6-Dimethoxybenzyl)-N′-quinolin-2-yl-guanidine acetate], the Ki was less than 100 nM. For `COc1ccccc1CNC(=N)Nc1ccc[n+](C)c1` [Example 35, 3-({Imino[(2-methoxybenzyl)amino]methyl}amino)-1-methylpyridinium acetate] the value was less than 10000 nM.

In the case of `COc1cccc(OC)c1CNC(=N)Nc1nccc(-c2cccs2)n1` [Example 15, N-(2,6-Dimethoxybenzyl)-N′-[4-(2-thienyl)pyrimidin-2-yl]guanidine acetate], the inhibition constant (Ki) is less than 100 nM. Molecule `COc1cccc(OC)c1CNC(=N)Nc1ccc(-c2ccccc2)cn1` [Example 83, N-(2,6-Dimethoxybenzyl)-N′-(5-phenylpyridin-2-yl) guanidine acetate] yielded a Ki of less than 100 nM. In the case of `COc1ccccc1CNC(=N)Nc1cccc(Cc2ccccc2)n1` [Example 69, N-(6-Benzylpyridin-2-yl)-N′-(2-methoxybenzyl)guanidine acetate], the Ki is less than 100 nM. As to `COc1cccc(F)c1CNC(=N)Nc1cccc(C#N)n1` [Example 77, N-(6-Cyanopyridin-2-yl)-N′-(2-fluoro-6-methoxybenzyl)guanidine acetate], the Ki was less than 100 nM.

As to `COc1cccc(Cl)c1CNC(=N)Nc1cccc(C#N)n1` [Example 78, N-(2-Chloro-6-methoxybenzyl)-N′-(6-cyanopyridin-2-yl)guanidine acetate], the Ki was less than 100 nM. For `COc1cccc(C)c1CNC(=N)Nc1ccc(C)cn1` [Example 19, N-(2-Methoxy-6-methylbenzyl)-N′-(5-methylpyridin-2-yl)guanidine] the value was less than 100 nM; for `COc1ccccc1CNC(=N)Nc1ncccc1Br` [Example 47, N-(3-Bromopyridin-2-yl)-N′-(2-methoxybenzyl)guanidine acetate], less than 10000 nM; for `COc1ccccc1CNC(=N)Nc1ccc(-c2ccc(C(F)(F)F)cc2)cn1` [Example 89, N-(2-Methoxybenzyl)-N′-{5-[4-(trifluoromethyl)phenyl]pyridin-2-yl}guanidine acetate], less than 300 nM. Take `COc1ccccc1CNC(=N)Nc1cc(C)ccn1` [Example 29, N-(2-Methoxybenzyl)-N′-(4-methylpyridin-2-yl)guanidine acetate]: the Ki is less than 100 nM. `COc1ccccc1CNC(=N)Nc1cccc(-c2ccccc2)n1` [Example 51, N-(2-Methoxybenzyl)-N′-(6-phenylpyridin-2-yl)guanidine acetate] yielded a Ki of less than 100 nM. The molecule `COc1ccccc1CNC(=N)Nc1cc(Br)ccn1` [Example 45, N-(4-Bromopyridin-2-yl)-N′-(2-methoxybenzyl)guanidine] returned a Ki of less than 100 nM. Next, `COc1ccccc1CNC(=N)Nc1cccnc1` [Example 34, N-(2-Methoxybenzyl)-N′-pyridin-3-yl-guanidine acetate]: less than 10000 nM; `COc1cccc(OC)c1CNC(=N)Nc1cccc(-c2ccc(F)cc2)n1` [Example 54, N-(2,6-Dimethoxybenzyl)-N′-[6-(4-fluorophenyl)pyridin-2-yl]guanidine]: less than 100 nM; `COc1cccc(F)c1CNC(=N)Nc1ncccc1C` [Example 32, N-(2-Fluoro-6-methoxybenzyl)-N′-(3-methylpyridin-2-yl)guanidine]: less than 100 nM. Molecule `COc1cccc(OC)c1CNC(=N)Nc1ncccn1` [Example 37, N-(2,6-Dimethoxybenzyl)-N′-pyrimidin-2-ylguanidine] showed a Ki of less than 100 nM.

With `COc1cccc(OC)c1CNC(=N)Nc1ncccc1-c1ccc(F)cc1` [Example 61, N-(2,6-Dimethoxybenzyl)-N′-(3-(4-fluorophenyl)pyridin-2-yl)guanidine acetate], the Ki is less than 300 nM. As for `COc1ccccc1CNC(=N)Nc1cc(-c2ccc(F)cc2)ccn1` [Example 59, N-[4-(4-Fluorophenyl)pyridin-2-yl]-N′-(2-methoxybenzyl)guanidine acetate], the inhibition constant (Ki) was less than 300 nM. On to `COc1ccccc1CNC(=N)Nc1cccc(C#N)n1` [Example 52, N-(6-Cyanopyridin-2-yl)-N′-(2-methoxybenzyl)guanidine acetate], for which the inhibitory constant (Ki) is less than 100 nM. For `COc1cccc(Cl)c1CNC(=N)Nc1ccc(I)cn1` [Example 91, N-(2-Chloro-6-methoxybenzyl)-N′-(5-iodopyridin-2-yl)guanidine acetate], the Ki was less than 100 nM.

For the molecule `COc1cccc(OC)c1CNC(=N)Nc1cccc(C)n1` [Example 9, N-(2,6-dimethoxybenzyl)-N′-(6-methylpyridin-2-yl)guanidine], the inhibition constant Ki was less than 100 nM. As for `COc1ccccc1CNC(=N)Nc1cc(-c2ccccc2)ccn1` [Example 58, N-(2-Methoxybenzyl)-N′-(4-phenylpyridin-2-yl)guanidine acetate], the Ki was less than 100 nM. Regarding `COc1ccccc1CNC(=N)Nc1ccc(-c2ccc(F)cc2)cn1` [Example 88, N-[5-(4-Fluorophenyl)pyridin-2-yl]-N′-(2-methoxybenzyl)guanidine acetate], the Ki was less than 100 nM. Molecule `COc1ccccc1CNC(=N)Nc1cc2ccccc2cn1` [Example 38, N-Isoquinolin-3-yl-N′-(2-methoxybenzyl)guanidine] had a Ki of less than 100 nM. `COc1cccc(OC)c1CNC(=N)Nc1cc(C)ccn1` [Example 30, N-(2,6-Dimethoxybenzyl)-N′-(4-methylpyridin-2-yl)guanidine acetate] yielded a Ki of less than 100 nM. For `COc1cccc(F)c1CNC(=N)Nc1cccc(Br)n1` [Example 72, N-(6-Bromopyridin-2-yl)-N′-(2-fluoro-6-methoxybenzyl)guanidine] the value was less than 100 nM.

`COc1ccccc1CNC(=N)Nc1ncccc1-c1ccccc1` [Example 62, N-(2-Methoxybenzyl)-N′-(3-phenylpyridin-2-yl)guanidine acetate]: the Ki is less than 100 nM. Molecule `COc1ccccc1CNC(=N)Nc1ccc(-c2cccs2)cn1` [Example 87, N-(2-Methoxybenzyl)-N′-[5-(2-thienyl)pyridin-2-yl]guanidine] registered a Ki of less than 100 nM. In turn, `COc1cccc(OC)c1CNC(=N)Nc1ccc(C#N)cn1` [Example 85, N-(5-Cyanopyridin-2-yl)-N′-(2,6-dimethoxybenzyl)guanidine acetate] showed a Ki of less than 100 nM. `COc1cccc(OC)c1CNC(=N)Nc1cc(-c2ccccc2)ccn1` [Example 56, N-(2,6-Dimethoxybenzyl)-N′-(4-phenylpyridin-2-yl)guanidine diacetate] gave an inhibition constant (Ki) of less than 100 nM.

As to `COc1cccc(OC)c1CNC(=N)Nc1ccccn1` [Example 5, N-(2,6-dimethoxybenzyl)-N′-pyridin-2-yl-guanidine acetate], the Ki was less than 100 nM. In turn, `COc1cccc(OC)c1CNC(=N)Nc1ccc(-c2ccc(F)cc2)cn1` [Example 84, N-(2,6-Dimethoxybenzyl)-N′-[5-(4-fluorophenyl)pyridin-2-yl]guanidine acetate] returned a Ki of less than 100 nM.

For the origin of these results see patent publication US9296697B2, “Hetaryl-substituted guanidine compounds and use thereof as binding partners for 5-HT5-receptors” (Abbott Laboratories, priority 2005, dated 2016).
